Experiments:
Type in all cases: in vivo
[1] = test system: barnyardgrass (Echinochloa crus-galli); assay: Test G Pre-Emergence Protocol; conditions: Echinochloa crus-galli, pre-emergence, 312 h, evaluated after 13 days; for pest or weed control at 15.625 g/ha: 15.625 g ai/ha, read-out: Barnyard grass damage rating (100=total damage to plant; 0=no damage to plant); for pest or weed control at 62.5 g/ha: 62.5 g ai/ha, 100=total damage to plant, 0=no damage to plant, read-out: plant damage rating, Barnyardgrass; for pest or weed control at 250 g/ha: 250 g ai/ha, read-out: Barnyardgrass damage rating (100=total damage to plant; 0=no damage to plant)
Method in brief: (§1)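 Visual injury (0–100) at day 13 after a single pre-emergence spray. Rates: 15.625, 62.5, 250 g/ha in acetone–water 50:50 with 0.5% Tween 20. Growth conditions: 24/16° C, 14 h light, 65% humidity.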

[2] = test system: velvetleaf (Abutilon theophrasti); assay: Test G Pre-Emergence Protocol; conditions: Abutilon theophrasti, pre-emergence, 312 h, evaluated after 13 days; for pest or weed control at 15.625 g/ha: 15.625 g ai/ha; for pest or weed control at 15.625 g/ha / pest or weed control at 250 g/ha: read-out: Velvetleaf damage rating (100=total damage to plant; 0=no damage to plant); for pest or weed control at 62.5 g/ha: 62.5 g ai/ha, 100=total damage to plant, 0=no damage to plant, read-out: plant damage rating, Velvetleaf; for pest or weed control at 250 g/ha: 250 g ai/ha
Method in brief: as §1

[3] = test system: ivy-leaved morning glory (Ipomoea hederacea); assay: Test G Pre-Emergence Protocol; conditions: Ipomoea, pre-emergence, 312 h, evaluated after 13 days; for pest or weed control at 62.5 g/ha: 62.5 g ai/ha, 100=total damage to plant, 0=no damage to plant, read-out: plant damage rating, Morningglory, Ivy-leaved
Method in brief: as §1

corn (Zea mays) [4] = assay: Test G Pre-Emergence Protocol; conditions: Zea mays, pre-emergence, 312 h, evaluated after 13 days; for plant injury at 15.625 g/ha: 15.625 g ai/ha; for plant injury at 15.625 g/ha / plant injury at 250 g/ha: read-out: Corn damage rating (100=total damage to plant; 0=no damage to plant); for plant injury at 62.5 g/ha: 62.5 g ai/ha, 100=total damage to plant, 0=no damage to plant, read-out: plant damage rating, Corn; for plant injury at 250 g/ha: 250 g ai/ha
Method in brief: as §1

[5] = test system: redroot pigweed (Amaranthus retroflexus); assay: Test G Pre-Emergence Protocol; conditions: Amaranthus retroflexus, pre-emergence, 312 h, evaluated after 13 days; for pest or weed control at 15.625 g/ha: 15.625 g ai/ha; for pest or weed control at 15.625 g/ha / pest or weed control at 250 g/ha: read-out: Pigweed, Redroot damage rating (100=total damage to plant; 0=no damage to plant); for pest or weed control at 62.5 g/ha: 62.5 g ai/ha, 100=total damage to plant, 0=no damage to plant, read-out: plant damage rating, Pigweed, Redroot; for pest or weed control at 250 g/ha: 250 g ai/ha
Method in brief: as §1

[6] = test system: giant foxtail (Setaria faberi); assay: Test G Pre-Emergence Protocol; conditions: Setaria faberi, pre-emergence, 312 h, evaluated after 13 days; for pest or weed control at 15.625 g/ha: 15.625 g ai/ha; for pest or weed control at 15.625 g/ha / pest or weed control at 250 g/ha: read-out: Foxtail, Giant damage rating (100=total damage to plant; 0=no damage to plant); for pest or weed control at 62.5 g/ha: 62.5 g ai/ha, 100=total damage to plant, 0=no damage to plant, read-out: plant damage rating, Foxtail, Giant; for pest or weed control at 250 g/ha: 250 g ai/ha
Method in brief: as §1

[7] = test system: barnyardgrass (Echinochloa crus-galli); assay: Test G Post-Emergence Protocol; conditions: Echinochloa crus-galli, post-emergence, 312 h; for pest or weed control at 15.625 g/ha: 15.625 g ai/ha, evaluated after 13 days (100=total damage to plant; 0=no damage to plant), read-out: Barnyardgrass damage rating; for pest or weed control at 62.5 g/ha: 62.5 g ai/ha, read-out: Barnyardgrass damage rating (100=total damage to plant; 0=no damage to plant); for pest or weed control at 62.5 g/ha / pest or weed control at 250 g/ha: evaluated after 13 days; for pest or weed control at 250 g/ha: 250 g ai/ha, read-out: damage to plant, Barnyardgrass (100=total damage to plant; 0=no damage to plant)
Method in brief: (§2)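 A glasshouse post-emergence test: 8-day-old plants sprayed at 15.625, 62.5 or 250 g/ha, then grown at 24/16 °C day/night with 14 h light and 65% humidity. Damage rated 13 days later, 0–100.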

[8] = test system: velvetleaf (Abutilon theophrasti); assay: Test G Post-Emergence Protocol; conditions: Abutilon theophrasti, post-emergence, 312 h; for pest or weed control at 15.625 g/ha: 15.625 g ai/ha, evaluated after 13 days (100=total damage to plant; 0=no damage to plant), read-out: Velvetleaf damage rating; for pest or weed control at 62.5 g/ha: 62.5 g ai/ha, read-out: Velvetleaf damage rating (100=total damage to plant; 0=no damage to plant); for pest or weed control at 62.5 g/ha / pest or weed control at 250 g/ha: evaluated after 13 days; for pest or weed control at 250 g/ha: 250 g ai/ha, read-out: damage to plant, Velvetleaf (100=total damage to plant; 0=no damage to plant)
Method in brief: as §2

[9] = test system: ivy-leaved morning glory (Ipomoea hederacea); assay: Test G Post-Emergence Protocol; conditions: Ipomoea, post-emergence, 312 h; for pest or weed control at 15.625 g/ha: 15.625 g ai/ha, evaluated after 13 days (100=total damage to plant; 0=no damage to plant), read-out: Morningglory, Ivy-leaved damage rating; for pest or weed control at 62.5 g/ha: 62.5 g ai/ha, read-out: Morningglory, Ivy-leaved damage rating (100=total damage to plant; 0=no damage to plant); for pest or weed control at 62.5 g/ha / pest or weed control at 250 g/ha: evaluated after 13 days; for pest or weed control at 250 g/ha: 250 g ai/ha, read-out: damage to plant, Morningglory, Ivy-leaved (100=total damage to plant; 0=no damage to plant)
Method in brief: as §2

corn (Zea mays) [10] = assay: Test G Post-Emergence Protocol; conditions: Zea mays, post-emergence, 312 h; for plant injury at 15.625 g/ha: 15.625 g ai/ha, evaluated after 13 days (100=total damage to plant; 0=no damage to plant), read-out: Corn damage rating; for plant injury at 62.5 g/ha: 62.5 g ai/ha, read-out: Corn damage rating (100=total damage to plant; 0=no damage to plant); for plant injury at 62.5 g/ha / plant injury at 250 g/ha: evaluated after 13 days; for plant injury at 250 g/ha: 250 g ai/ha, read-out: damage to plant, Corn (100=total damage to plant; 0=no damage to plant)
Method in brief: as §2

[11] = test system: redroot pigweed (Amaranthus retroflexus); assay: Test G Post-Emergence Protocol; conditions: Amaranthus retroflexus, post-emergence, 312 h; for pest or weed control at 15.625 g/ha: 15.625 g ai/ha, evaluated after 13 days (100=total damage to plant; 0=no damage to plant), read-out: Pigweed, Redroot damage rating; for pest or weed control at 62.5 g/ha: 62.5 g ai/ha, read-out: Pigweed, Redroot damage rating (100=total damage to plant; 0=no damage to plant); for pest or weed control at 62.5 g/ha / pest or weed control at 250 g/ha: evaluated after 13 days; for pest or weed control at 250 g/ha: 250 g ai/ha, read-out: damage to plant, Pigweed, Redroot (100=total damage to plant; 0=no damage to plant)
Method in brief: as §2

[12] = test system: giant foxtail (Setaria faberi); assay: Test G Post-Emergence Protocol; conditions: Setaria faberi, post-emergence, 312 h; for pest or weed control at 15.625 g/ha: 15.625 g ai/ha, evaluated after 13 days (100=total damage to plant; 0=no damage to plant), read-out: Foxtail, Giant damage rating; for pest or weed control at 62.5 g/ha: 62.5 g ai/ha, read-out: Foxtail, Giant damage rating (100=total damage to plant; 0=no damage to plant); for pest or weed control at 62.5 g/ha / pest or weed control at 250 g/ha: evaluated after 13 days; for pest or weed control at 250 g/ha: 250 g ai/ha, read-out: damage to plant, Foxtail, Giant (100=total damage to plant; 0=no damage to plant)
Method in brief: as §2

SMILES	pest or weed control at 15.625 g/ha [1]	pest or weed control at 62.5 g/ha [1]	pest or weed control at 250 g/ha [1]	pest or weed control at 15.625 g/ha [2]	pest or weed control at 62.5 g/ha [2]	pest or weed control at 250 g/ha [2]	pest or weed control at 62.5 g/ha [3]	plant injury at 15.625 g/ha (corn (Zea mays) [4])	plant injury at 62.5 g/ha (corn (Zea mays) [4])	plant injury at 250 g/ha (corn (Zea mays) [4])	pest or weed control at 15.625 g/ha [5]	pest or weed control at 62.5 g/ha [5]	pest or weed control at 250 g/ha [5]	pest or weed control at 15.625 g/ha [6]	pest or weed control at 62.5 g/ha [6]	pest or weed control at 250 g/ha [6]	pest or weed control at 15.625 g/ha [7]	pest or weed control at 62.5 g/ha [7]	pest or weed control at 250 g/ha [7]	pest or weed control at 15.625 g/ha [8]	also measured
CN1C[C@H](c2ccc3ccccc3c2)[C@@H](C(=O)Nc2cccc(F)c2F)C1=O (racemic) [Compound 1501]	0%	50%	60%	0%	0%	0%	0%	0%	0%	0%	0%	0%	0%	0%	70%	80%	10%	50%	60%	0%	pest or weed control at 62.5 g/ha [8]: 0%; pest or weed control at 250 g/ha [8]: 0%; pest or weed control at 15.625 g/ha [9]: 0%; pest or weed control at 62.5 g/ha [9]: 0%; pest or weed control at 250 g/ha [9]: 0%; plant injury at 15.625 g/ha (corn (Zea mays) [10]): 10%; plant injury at 62.5 g/ha (corn (Zea mays) [10]): 20%; plant injury at 250 g/ha (corn (Zea mays) [10]): 30%; pest or weed control at 15.625 g/ha [11]: 0%; pest or weed control at 62.5 g/ha [11]: 0%; pest or weed control at 250 g/ha [11]: 0%; pest or weed control at 15.625 g/ha [12]: 40%; pest or weed control at 62.5 g/ha [12]: 60%; pest or weed control at 250 g/ha [12]: 60%
CN1C[C@@H](c2ccc(C(F)(F)F)cc2)[C@H](C(=O)Nc2cc(F)nc(F)c2)C1=O (racemic) [Compound 1515]	0%	0%	0%	0%	0%	0%	0%	0%	0%	0%	0%	0%	0%	0%	0%	0%	0%	0%	0%	0%	pest or weed control at 15.625 g/ha ([3]; 15.625 g ai/ha, read-out: Morning-glory, Ivy-leaved damage rating (100=total damage to plant; 0=no damage to plant)): 0%; pest or weed control at 250 g/ha ([3]; 250 g ai/ha, read-out: Morningglory, Ivy-leaved damage rating (100=total damage to plant; 0=no damage to plant)): 0%; pest or weed control at 62.5 g/ha [8]: 0%; pest or weed control at 250 g/ha [8]: 0%; pest or weed control at 15.625 g/ha [9]: 0%; pest or weed control at 62.5 g/ha [9]: 0%; pest or weed control at 250 g/ha [9]: 0%; plant injury at 15.625 g/ha (corn (Zea mays) [10]): 0%; plant injury at 62.5 g/ha (corn (Zea mays) [10]): 0%; plant injury at 250 g/ha (corn (Zea mays) [10]): 0%; pest or weed control at 15.625 g/ha [11]: 0%; pest or weed control at 62.5 g/ha [11]: 0%; pest or weed control at 250 g/ha [11]: 0%; pest or weed control at 15.625 g/ha [12]: 0%; pest or weed control at 62.5 g/ha [12]: 0%; pest or weed control at 250 g/ha [12]: 0%
